Measured values: US20240285586A1, “METHODS FOR TREATING BACTERIAL CELL POPULATIONS” (THE HONG KONG POLYTECHNIC UNIVERSITY, priority 2021, published 2024)
Values joined by “and” are separate entries in the source; they are usually repeats but may differ in a detail not shown here. Identical values can stand only once. Residues, ends and D or L forms follow the SMILES beside them. *: point of attachment. βNA = c1ccc2cc(N*)ccc2c1

Assays:
[1] = test system: E. coli BW25113 wild type; experiment: Antibiotic accumulation assay (BOCILLIN, flow cytometry), wild type; assay type: cell-based, Escherichia coli; details: 24 hrs starvation, BOCILLIN 10 μg/mL
Experimental: (§1) Antibiotic accumulation assay. The overnight bacteria culture was diluted 100-fold in LB broth and cultivated for about 1 hr until the OD600 value reached 0.2 (exponential phase). Aliquots of this exponential phase culture were washed and re-suspended in saline, cultured at 37° C. under constant shaking (250 rpm) for 24 hrs, followed by addition of CCCP (1 μM). After 5 mins, BOCILLIN™ FL Penicillin (10 μg/mL) was added and incubated at 37° C. with shaking at 250 rpm for 1 hr. Upon washing twice with PBS, fluorescence signal was measured by flow cytometry CytoFLEX (Beckman). Microorganisms were identified by FSC (forward scatter) and SSC (side scatter) parameters. Fluorescence intensity was measured at 488-nm excitation, 525-nm emission.

[2] = test system: E. coli ΔpspA; experiment: Antibiotic accumulation assay (BOCILLIN, flow cytometry), ΔpspA; assay type: cell-based, Escherichia coli; details: 24 hrs starvation, no CCCP
Experimental: as §1

[3] = test system: E. coli BW25113; experiment: Starvation-induced tolerance assay, wild type E. coli; assay type: cell-based, Escherichia coli; details: for size of the E. coli population: within 24 hrs
Experimental: (§2) Tolerance assay. […] Standard serial dilution and plating on LB agar was performed before and after ampicillin treatment for 4 hrs, 2 days, 4 days and 6 days to determine the fraction of the test population that survived at different time points during the course of treatment.
(§3) Standard serial dilution and plating on LB agar was performed on samples collected every 24 hrs to assess changes in the size of the sub-population that survived during the treatment process.
(§4) Upon reaching the exponential phase, bacteria were washed and re-suspended in saline (0.9% NaCl), and then incubated at 37° C. under constant shaking (250 rpm/min) for 24 hrs. […] Standard serial dilution and plating on LB agar were performed before and after ampicillin treatment for 4 hrs, 1 day, 2 days and 4 days to determine the fraction of the test population that survived at different time points during the course of treatment.

[4] = test system: K. pneumoniae; experiment: Starvation-induced tolerance assay, K. pneumoniae; assay type: cell-based, Klebsiella pneumoniae
Experimental: as §2, §3, §4

[5] = test system: A. baumannii; experiment: Starvation-induced tolerance assay, A. baumannii; assay type: cell-based, Acinetobacter baumannii
Experimental: as §2, §3, §4

[6] = test system: S. aureus; experiment: Starvation-induced tolerance assay, S. aureus; assay type: cell-based, Staphylococcus aureus
Experimental: as §2, §3, §4

[7] = test system: S. typhimurium; experiment: Starvation-induced tolerance assay, S. typhimurium; assay type: cell-based
Experimental: as §2, §3, §4

[8] = test system: Gram negative strains; experiment: Minimal inhibitory concentration, Gram negative strains; assay type: cell-based; details: all Gram negative test strains
Excerpt: Determination of Minimal Inhibitory Concentrations (MICs).

[9] = test system: E. coli wild type strain; experiment: Assessment of efflux activity (Nile Red); assay type: cell-based, Escherichia coli; details: CCCP 100 μM, within 30 mins, increased from ~6500 RFU
Experimental: Assessment of efflux activity. A10-mL portion of bacterial population which had been subjected to 24 hrs starvation was centrifuged at 6000×g for 5 mins at room temperature. The pellet was re-suspended in PBS containing 1 mM MgCl2(PPB) and adjusted to OD600 0.2. Nile Red which fluoresces only weakly in aqueous solutions but becomes strongly fluorescent in nonpolar environments was added to produce a final concentration of 5 μM followed by incubation at 37° C. for 30 mins, with 250 rpm shaking. CCCP was then added to produce a final concentration of 100 μM; fluorescence was measured for a period of 30 mins by a Clariostar Microplate Reader at an excitation wavelength of 544±10 nm and an emission wavelength of 650±10 nm.

[10] = general statement; cited from earlier work
[11] = test system: Escherichia coli BW25113; experiment: Effect of PAβN on bacterial growth rate; assay type: cell-based; details: PAβN 100 μM in LB broth
Experimental: Assessment of effect of PAβN on bacterial growth rate. The overnight culture of the Escherichia coli BW25113 strain was diluted 1:100 in LB Broth, followed by addition of 100 μM PAβN; a sample in which only saline was added was included as negative control. OD600 value was tested at different time points.

[12] = test system: E. coli BW25113 ΔpspA; assay type: cell-based, Escherichia coli
Experimental: as §2, §3

[13] = test system: E. coli BW25113::ΔnuoI; experiment: Starvation-induced tolerance assay, ΔnuoI knockout; assay type: cell-based, Escherichia coli; details: 24 hrs starvation, then six days of ampicillin treatment
Experimental: as §2

[14] = test system: E. coli BW25113::ΔndhΔnuoI; experiment: Starvation-induced tolerance assay, ΔndhΔnuoI double knockout; assay type: cell-based, Escherichia coli; details: ampicillin for six days
Experimental: as §2

[15] = test system: E. coli ΔtolC mutant; experiment: Starvation-induced tolerance assay, ΔtolC knockout; assay type: cell-based, Escherichia coli; details: ampicillin for six days
Experimental: as §2

[16] = test system: E. coli tolerant cells; experiment: Scanning electron microscopy of tolerant cells; assay type: cell-based, Escherichia coli; details: ampicillin 100 μg/ml and 1000 μg/ml, 24 hours
Experimental: Electron microscopy analysis. E. coli which had been subjected to starvation for 24 hours were treated with econazole alone, ampicillin alone and a combination of econazole and ampicillin for 24 hours, followed by examination under scanning electron microscopy (SEM). Cells treated with saline were included as negative control. Briefly, bacterial cells were fixed in 0.4% polyoxymethylene overnight and then in Osmium tetroxide (OsO4) for 2 hrs, followed by washing for three times with PBS. The cells were then dehydrated using pure ethanol, and infiltrated and embedded in Spurr resin for examination by SEM.

[17] = test system: S. typhimurium PY1; experiment: Mouse peritonitis infection (tolerance sepsis) model; assay type: in vivo
Experimental: NIH male mice of about six-weeks-old with body weight of ˜20 g were used, 6 mice per group. The animals were allowed to acclimate to the housing facility for 5 days. The mice were made neutropenic by administering 150 mg/kg cyclophosphamide 3 days and 1 day before infection. Different amounts of S. typhimurium strain PY01 (2.8×10^5 CFU, 7.6×10^5 CFU or 1.5×10^6 CFU) were inoculated into the animals via intraperitoneal injection. The mice were subjected to ceftazidime (20 mg/kg), econazole (20 mg/kg) or ceftazidime combining econazole treatment (i.p.) 24 h after inoculation, at 12 hrs intervals for 72 hrs randomly. The mortality rate of the test mice was recorded every 12 hrs. After 72 h of treatment, live mice were euthanized and subjected to peritoneal washes which involved injection of 2 mL of saline into the intraperitoneal space, followed by abdominal massage. The abdomen was then cut open and 200 μL of peritoneal fluid were collected and serially diluted in saline. A 100 μL portion of each dilution was spread on LB plates, followed by incubation overnight at 37° C. Colonies were counted to determine the bacterial load in the test samples, which were expressed as CFU/ml. Statistical analysis and ethic approval were the same as described above.

[18] = test system: E. coli J53 (mcr-1); experiment: MIC of colistin in presence and absence of compound, broth dilution; assay type: cell-based, Escherichia coli; details: antibiotic resistant E. coli (FIG. 20)
[19] = test system: E. coli; experiment: Membrane potential assay DiSC3(5), E. coli; assay type: cell-based, Escherichia coli; details: valinomycin 1 μM, positive control, exponential phase
Experimental: Membrane potential assay. The transmembrane electrical potential was measured by using a membrane potential-sensitive probe, DiSC3(5). Bacterial population in either the exponential phase (OD600 of 0.2) or under 24 hrs starvation (resuspended in saline) were collected by centrifugation (6000×g, 2 mins), washed twice and re-suspended in PBS (pH 7.4), and then adjusted to OD600 of 0.2. KCl and DiSC3(5) were added until final concentration of 100 mM and 1 μM was respectively reached, followed by incubation at room temperature for 25 mins in the dark to allow the dye to penetrate through the outer membrane and produce a quenching effect. […] The fluorescence reading was monitored by using a Clariostar Microplate Reader (BMG LABTECH) at an excitation wavelength of 622±10 nm and an emission wavelength of 670±10 nm for 10 mins. Upon depolarization, the dye was rapidly released into the medium, resulting in dequenching and facilitating detection fluorometrically. […] The sample preparation method is same as that prior to testing with the Microplate Reader except for the last step. Briefly, cells were washed with PBS three times before confocal observation to remove extracellular DiSC3(5) dye. […] DiSC3(5) was excited by 638 nm laser and fluorescence was detected by HyD detector at emission wavelength 675±25 nm. The images were acquired and analyzed by the Leica Application Suite X (LAS X) software. […]

[20] = test system: E. coli BW25113 and its ΔpspA derivative; experiment: Membrane permeability assay (SYTOX Green); assay type: cell-based, Escherichia coli; details: colistin, positive control; similar in wild type and ΔpspA
Experimental: Membrane permeability assay. The membrane permeability or integrity of the test organisms was measured using SYTOX Green (ThermoFisher), which can enter the cell through damaged cell membrane and bind to nucleic acid, generating fluorescence signal. E. coli BW25113 and its ΔpspA derivative at a concentration of OD600 of 0.2, which had been subjected to 24 hrs starvation, were collected by centrifugation (6000×g, 2 mins), washed twice and re-suspended in saline. SYTOX Green was then added to give a final concentration of 1 μM, followed by incubation for 30 min in the dark at room temperature. The relative fluorescence signal in the wild type and ΔpspA strain was measured by a Cary Eclipse Fluorescence Spectrophotometer (Agilent), with an excitation wavelength of 488±10 nm and an emission wavelength of 523±10 nm.

[21] = CCCP 100 μM, absence of ampicillin
[22] = low concentration of CCCP + 10×MIC ampicillin

Cc1cc(C)n2c1C=C1C=CC(CCC(=O)Nc3ccc(OCC(=O)N[C@@H]4C(=O)N5[C@@H]4SC(C)(C)[C@@H]5C(=O)[O-])cc3)=[N+]1[B-]2(F)F.[Na+] [BOCILLIN]
cells exhibiting high BOCILLIN intensity (>10^3 RFU) ([1]; absence of CCCP): 10.45%
cells that exhibited high BOCILLIN level [2]: 18.52%

N#CC(C#N)=NNc1cccc(Cl)c1 [CCCP, carbonyl cyanide-m-chlorophenylhydrazone]
population size ([3]; CCCP 1 μM + ampicillin, […], after 24 hrs starvation): ~80 cells/mL
tolerance to ciprofloxacin ([3]; CCCP 1 μM + ciprofloxacin 0.5 μg/mL): not affected
phenotypic tolerance to gentamicin upon PMF dissipation ([3]; CCCP 1 μM + gentamicin 10 μg/mL): cannot be maintained
size of the surviving population ([3]; CCCP 1 μM alone, […], after 24 hrs starvation): remained unchanged
size of the E. coli population ([3]; CCCP 100 μM + ampicillin): ~2×10^4 cells/mL
size of the E. coli population ([3]; CCCP 100 μM alone, from ~2.5×10^7 cells/mL): ~5×10^5 cells/mL
time to eradication of the entire antibiotic tolerant population ([3]; CCCP 100 μM with ampicillin): ≤ 48 h
time to eradication of the entire antibiotic tolerant population ([3]; CCCP 100 μM without ampicillin): ≤ 48 h
killing effect compared with CCCP alone ([3]; CCCP (100 μM) + ampicillin): significantly stronger
entire tolerant cell population ([3]; CCCP (concentration not stated) and ampicillin, six days): ~50 cells/mL
killing of bacterial tolerant cells ([3]; CCCP alone (100 μM)): kill bacterial tolerant cells
eradication of tolerant cells [4, 21]: could eradicate tolerant bacteria cells
effect on phenotypic ampicillin tolerance [4, 22]: sufficient to suppress or even completely abolish phenotypic ampicillin tolerance
eradication of tolerant cells [5, 21]: could eradicate tolerant bacteria cells
effect on phenotypic ampicillin tolerance [5, 22]: sufficient to suppress or even completely abolish phenotypic ampicillin tolerance
eradication of tolerant cells [6, 21]: could eradicate tolerant bacteria cells
effect on phenotypic ampicillin tolerance [6, 22]: sufficient to suppress or even completely abolish phenotypic ampicillin tolerance
eradication of tolerant cells [7, 21]: could eradicate tolerant bacteria cells
effect on phenotypic ampicillin tolerance [7, 22]: sufficient to suppress or even completely abolish phenotypic ampicillin tolerance
MIC [8]: > 160 µM
cells exhibiting high BOCILLIN intensity (>10^3 RFU) ([1]; CCCP (1 μM) treatment): 97.86%
Nile Red fluorescence intensity [9]: ~10000 RFU
toxicity or safety in human [10]: toxic to human

N=C(N)NCCC[C@H](NC(=O)[C@@H](N)Cc1ccccc1)C(=O)Nc1ccc2ccccc2c1 [PAβN] (H-Phe-Arg-βNA)
effect on bacterial growth [11]: did not exert any negative effect on bacterial growth

CC1(C)S[C@@H]2[C@H](NC(=O)[C@H](N)c3ccccc3)C(=O)N2[C@H]1C(=O)O [ampicillin]
size of the antibiotic tolerant sub-population ([3]; wild type, 24 hrs starvation, then ampicillin 100 μg/mL (~10×MIC) for 6 days): 4×10^6 cells/mL and ~2.5×10^7 cells/mL
size of the antibiotic tolerant sub-population ([12]; 24 hrs starvation, then ampicillin 100 μg/mL for 6 days): ~3×10^5 cells/mL
tolerant sub-population relative to that of wild type ([12]; after 6 days of ampicillin treatment): 10%
population size [13]: ~3.5×10^5 cell/mL
reduction of the tolerant population [14]: ~10^4 fold
size of the tolerant population [14]: ~200 cells/mL
size of the tolerant population [15]: ~5×10^4 cells/mL
cell morphology under SEM [16]: slight shrinkage in the pole areas

CC(C)(O/N=C(\C(=O)N[C@@H]1C(=O)N2C(C(=O)[O-])=C(C[n+]3ccccc3)CS[C@H]12)c1csc(N)n1)C(=O)O [ceftazidime]
size of the tolerant population ([7]; ceftazidime alone (100 μg/ml), 96 hrs (FIG. 16F)): ~1.4×10^7 CFU/mL
infected mice rescued ([17]; ceftazidime alone 20 mg/kg, 1.5×10^6 CFU): 10%
protection of the test animals from death ([17]; ceftazidime alone 20 mg/kg, inoculation of 7.6×10^5 CFU): could protect the test animals from being killed
rate of eradication of PY1 tolerant sub-population compared with the econazole and ceftazidime combination ([17]; ceftazidime only 20 mg/kg, lower inoculum (FIG. 19F), P=0.0004): significantly slower

C=CCOC(Cn1ccnc1)c1ccc(Cl)cc1Cl (stereo not drawn) [enilconazole]
effect of co-administration with colistin [18]: bactericidal synergistic effect

N#C/C(=C1/SC[C@@H](c2ccc(Cl)cc2Cl)S1)n1ccnc1 [lulionazole]
effect of co-administration with colistin [18]: bactericidal synergistic effect

Clc1ccc(COC(Cn2ccnc2)c2ccc(Cl)cc2Cl)c(Cl)c1 (stereo not drawn) [miconazole]
effect of co-administration with colistin [18]: bactericidal synergistic effect

Clc1ccc(C(Cn2ccnc2)OCc2csc3c(Cl)cccc23)c(Cl)c1 (stereo not drawn) [sertaconazole]
effect of co-administration with colistin [18]: bactericidal synergistic effect

Clc1ccc(C(Cn2ccnc2)OCc2ccsc2Cl)c(Cl)c1 (stereo not drawn) [tioonazole]
effect of co-administration with colistin [18]: bactericidal synergistic effect

CC(C)[C@@H]1NC(=O)[C@H](C)OC(=O)[C@@H](C(C)C)NC(=O)[C@@H](C(C)C)OC(=O)[C@H](C(C)C)NC(=O)[C@H](C)OC(=O)[C@@H](C(C)C)NC(=O)[C@@H](C(C)C)OC(=O)[C@H](C(C)C)NC(=O)[C@H](C)OC(=O)[C@@H](C(C)C)NC(=O)[C@@H](C(C)C)OC1=O [valinomycin]
effect on membrane potential (DiSC3(5) fluorescence) [19]: caused dissipation of membrane potential

colistin
effect on membrane permeability (SYTOX Green) [20]: cause membrane damage and an eventual increase in membrane permeability
